Measured values taken from US20090069319A1, “IMIDAZOPYRIDINE ANALOGS AND THEIR USE AS AGONISTS OF THE WNT-BETA-CATENIN CELLULAR MESSAGING SYSTEM” (Wyeth, priority 2007, published 2009).

Tests used:
[1] = tested on: canonical Wnt-β-catenin cellular messaging system (16xTCF-TK-FireFly-Luci reporter, Wnt3a and Dkk1 co-transfected U2OS cells); test: Functional Dkk1-LRP5-TCF-Luciferase Assay in U2OS Cells (table columns: A=MAX FOLD Induction/DMSO CONTROL; B=fold induction @ 2.0 uM; C=fold induction @ 20.0 uM); assay type: cell-based, Human; settings: maximum fold induction over DMSO control
In short: (§1)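 U2OS cells co-transfected with 16×TCF-TK-firefly luciferase, TK-Renilla control, Wnt3a and Dkk1, then frozen; thawed cells (~5,000/well, ~5% FBS, phenol red-free RPMI) incubated ~20 h at 37° C. with compound (0.25% DMSO). Firefly luminescence (Bright-Glo) normalized to DMSO mean as fold induction.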

[2] = as above; assay type: cell-based, Human; settings: Homo sapiens; for EC50: U2OS cells, TCF-luciferase reporter; for fold induction at 2 µM / fold induction at 20 µM: U2OS; for fold induction at 2 µM: 2.0 uM compound; for fold induction at 20 µM: 20.0 uM compound
In short: as §1

SMILES | A = MAX FOLD Induction/DMSO CONTROL [1] | EC50 [2] | fold induction at 2 µM [2] | fold induction at 20 µM [2]
c1ccc2cc(-c3cnc4c(c3)nc(-c3ccc5c(c3)OCO5)n4C3CCNCC3)ccc2c1 [2-(1,3-benzodioxol-5-yl)-6-(2-naphthyl)-3-piperidin-4-yl-3H-imidazo[4,5-b]pyridine] | 1.860 | 737 nM |  | 
COc1ncccc1-c1nc2cc(-c3ccc4ccccc4c3)cnc2n1C1CCNCC1 [2-(2-methoxypyridin-3-yl)-6-(2-naphthyl)-3-piperidin-4-yl-3H-imidazo[4,5-b]pyridine] | 2.030 |  | 2.06 | 0.02
Clc1ccc(-c2nc3cc(-c4ccc5ccccc5c4)cnc3n2C2CCNCC2)cc1 [2-(4-chlorophenyl)-6-(2-naphthyl)-3-piperidin-4-yl-3H-imidazo[4,5-b]pyridine] | 1.160 |  |  | 
Fc1ccc(-c2nc3c(-c4ccc5ccccc5c4)ccnc3n2C2CCNCC2)cc1 [2-(4-fluorophenyl)-7-(2-naphthyl)-3-piperidin-4-yl-3H-imidazo[4,5-b]pyridine] | 1.370 |  | 2.07 | 
COc1ccc(-c2nc3cc(-c4ccc5ccccc5c4)cnc3n2C2CCNCC2)cc1 [2-(4-methoxyphenyl)-6-(2-naphthyl)-3-piperidin-4-yl-3H-imidazo[4,5-b]pyridine] | 1.350 |  |  | 
COc1ccc(-c2nc3c(-c4ccc5ccccc5c4)ccnc3n2C2CCNCC2)cc1 [2-(4-methoxyphenyl)-7-(2-naphthyl)-3-piperidin-4-yl-3H-imidazo[4,5-b]pyridine] | 1.320 |  | 1.98 | 
Cc1nc[nH]c1-c1nc2cc(-c3ccc4ccccc4c3)cnc2n1C1CCNCC1 [2-(4-methyl-1H-imidazol-5-yl)-6-(2-naphthyl)-3-piperidin-4-yl-3H-imidazo[4,5-b]pyridine] | 1.870 |  |  | 
Oc1ccccc1-c1nc2cc(-c3ccc4ccccc4c3)cnc2n1C1CCNCC1 [2-[6-(2-naphthyl)-3-piperidin-4-yl-3H-imidazo[4,5-b]pyridin-2-yl]phenol] | 1.380 |  |  | 
COc1cc(-c2nc3cc(-c4ccc5ccccc5c4)cnc3n2C2CCNCC2)ccc1O [2-methoxy-4-[6-(2-naphthyl)-3-piperidin-4-yl-3H-imidazo[4,5-b]pyridin-2-yl]phenol] | 2.110 | 486 nM |  | 
Cc1nc2c(-c3ccc4ccccc4c3)ccnc2n1[C@@H]1CCCNC1 [2-methyl-7-(2-naphthyl)-3-[(3R)-piperidin-3-yl]-3H-imidazo[4,5-b]pyridine] | 3.570 | 2680 nM | 2.74 | 0.05
Cc1nc2c(-c3ccc4ccccc4c3)ccnc2n1[C@H]1CCCNC1 [2-methyl-7-(2-naphthyl)-3-[(3S)-piperidin-3-yl]-3H-imidazo[4,5-b]pyridine] | 1.910 |  | 2.12 | 0.02
Cc1nc2c(-c3ccc4ccccc4c3)ccnc2n1C1CCNCC1 [2-methyl-7-(2-naphthyl)-3-piperidin-4-yl-3H-imidazo[4,5-b]pyridine] | 3.215 | 895 nM | 2.84 | 
CS(=O)(=O)N1CCC(n2cnc3c(-c4ccc5ccccc5c4)ccnc32)CC1 [3-[1-(methylsulfonyl)piperidin-4-yl]-7-(2-naphthyl)-3H-imidazo[4,5-b]pyridine] | 1.230 |  | 1.66 | 2.52
c1ccc2cc(-c3ccnc4c3ncn4CCCn3ccnc3)ccc2c1 [3-[3-(1H-imidazol-1-yl)propyl]-7-(2-naphthyl)-3H-imidazo[4,5-b]pyridine] | 2.870 | 10200 nM | 1.76 | 3.31
Oc1cccc(-c2nc3cc(-c4ccc5ccccc5c4)cnc3n2C2CCNCC2)c1O [3-[6-(2-naphthyl)-3-piperidin-4-yl-3H-imidazo[4,5-b]pyridin-2-yl]benzene-1,2-diol] | 1.430 |  |  | 
Oc1cccc(-c2nc3cc(-c4ccc5ccccc5c4)cnc3n2C2CCNCC2)c1 [3-[6-(2-naphthyl)-3-piperidin-4-yl-3H-imidazo[4,5-b]pyridin-2-yl]phenol] | 1.860 | 1220 nM |  | 
Oc1ccc(-c2nc3cc(-c4ccc5ccccc5c4)cnc3n2C2CCNCC2)cc1 [4-[6-(2-naphthyl)-3-piperidin-4-yl-3H-imidazo[4,5-b]pyridin-2-yl]phenol] | 1.710 |  |  | 
c1c[nH]c(-c2nc3cc(-c4ccc5ccccc5c4)cnc3n2C2CCNCC2)c1 [6-(2-naphthyl)-3-piperidin-4-yl-2-(1H-pyrrol-2-yl)-3H-imidazo[4,5-b]pyridine] | 1.580 |  | 1.01 | 1.99
C=Cc1cccc(-c2nc3cc(-c4ccc5ccccc5c4)cnc3n2C2CCNCC2)c1 [6-(2-naphthyl)-3-piperidin-4-yl-2-(3-vinylphenyl)-3H-imidazo[4,5-b]pyridine] | 1.290 |  |  | 
FC(F)(F)c1ccccc1-c1nc2cc(-c3ccc4ccccc4c3)cnc2n1C1CCNCC1 [6-(2-naphthyl)-3-piperidin-4-yl-2-[2-(trifluoromethyl)phenyl]-3H-imidazo[4,5-b]pyridine] | 1.360 |  |  | 
c1cncc(-c2nc3cc(-c4ccc5ccccc5c4)cnc3n2C2CCNCC2)c1 [6-(2-naphthyl)-3-piperidin-4-yl-2-pyridin-3-yl-3H-imidazo[4,5-b]pyridine] | 1.100 |  | 1.75 | 0.005
c1ccc2cc(-c3ccnc4c3ncn4CC3CCNCC3)ccc2c1 [7-(2-naphthyl)-3-(piperidin-4-ylmethyl)-3H-imidazo[4,5-b]pyridine] | 1.930 |  | 2.72 | 
c1ccc2cc(-c3ccnc4c3ncn4[C@@H]3CCCNC3)ccc2c1 [7-(2-naphthyl)-3-[(3R)-piperidin-3-yl]-3H-imidazo[4,5-b]pyridine] | 3.820 | 963 nM | 3.48 | 1.4
c1ccc2cc(-c3ccnc4c3ncn4[C@@H]3CCNC3)ccc2c1 [7-(2-naphthyl)-3-[(3R)-pyrrolidin-3-yl]-3H-imidazo[4,5-b]pyridine] | 4.260 | 3150 nM | 2.06 | 1.65
c1ccc2cc(-c3ccnc4c3ncn4[C@H]3CCCNC3)ccc2c1 [7-(2-naphthyl)-3-[(3S)-piperidin-3-yl]-3H-imidazo[4,5-b]pyridine] | 2.303 | 18 nM | 1.02 | 0.01
c1ccc2cc(-c3ccnc4c3ncn4[C@H]3CCNC3)ccc2c1 [7-(2-naphthyl)-3-[(3S)-pyrrolidin-3-yl]-3H-imidazo[4,5-b]pyridine] | 2.780 |  | 2.1 | 0.44
CC(=O)Nc1ccc(-c2nc3cc(-c4ccc5ccccc5c4)cnc3n2C2CCNCC2)cc1 [N-{4-[6-(2-naphthyl)-3-piperidin-4-yl-3H-imidazo[4,5-b]pyridin-2-yl]phenyl}acetamide] | 1.460 |  |  | 
